We go through 31 compounds from paper PMC3409115, “Diverse Inhibitor Chemotypes Targeting Trypanosoma cruzi CYP51” (PLoS Neglected Tropical Diseases, 2012).

Molecules are shown by their SMILES.

The target of the test is T1, T. cruzi CYP51 (Trypanosoma cruzi, UniProt Q7Z1V1).
T1 construct: had the first 21 residues upstream of K22 replaced with the fragment MAKKKKK; His6 (C); made in house
T1 sequence (Q7Z1V1 15-481, looked up, natural form): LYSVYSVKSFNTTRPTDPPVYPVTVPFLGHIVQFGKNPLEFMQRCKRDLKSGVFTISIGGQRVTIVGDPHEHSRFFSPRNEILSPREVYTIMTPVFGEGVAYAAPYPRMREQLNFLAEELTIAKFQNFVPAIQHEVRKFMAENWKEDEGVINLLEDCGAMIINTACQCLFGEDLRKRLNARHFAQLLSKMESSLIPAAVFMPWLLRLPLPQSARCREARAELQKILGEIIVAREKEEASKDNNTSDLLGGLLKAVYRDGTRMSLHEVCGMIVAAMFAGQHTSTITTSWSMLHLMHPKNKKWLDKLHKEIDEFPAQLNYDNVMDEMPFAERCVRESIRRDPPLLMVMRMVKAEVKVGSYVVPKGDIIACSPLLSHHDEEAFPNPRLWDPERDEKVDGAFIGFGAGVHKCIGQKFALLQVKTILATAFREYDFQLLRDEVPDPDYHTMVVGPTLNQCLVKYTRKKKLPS
The test is described as follows: HTS spectral-mode binding screen, type II difference spectra scored 0-5. Particulars: spectral mode, four serial dilutions 2 µM to 12.5 µM, 2 µM CYP51.
Compound `COc1ccc(-c2[nH]nc3c2C(c2cccnc2)NC3=O)cc1` (stereo not shown) [Compound 65] gave an HTS binding score of 4.
The value for `Cc1[nH]c2ccccc2c1C(Nc1cccc(F)c1)c1cccnc1` (stereo not shown) [Compound 88] was 4; that for `CC1=C(C(=O)Nc2cccnc2)C(c2ccc(Cl)cc2)n2nc(CCCO)nc2N1` (stereo not shown) [Compound 160] was 4.
As for `Cc1ccccc1CSCc1ccc(C(=O)NCc2cccnc2)o1` [Compound 113], the HTS binding score was found to be 4.
Compound `COC(=O)C1=C(N)Oc2cc(C)oc(=O)c2C1c1cccnc1` (stereo not shown) [Compound 73] returned an HTS binding score of 4.
`O=C(CN(Cc1ccccc1)S(=O)(=O)c1ccccc1)NCc1ccncc1` [Compound 139]: the HTS binding score was 5.
Compound `COc1cc(NS(=O)(=O)c2ccc(Nc3nc(-c4cccnc4)cs3)cc2)nc(OC)n1` [Compound 177] registered an HTS binding score of 4.
The value for `Cc1ccc(Cl)cc1-n1ncc2c(NCc3cccnc3)ncnc21` [Compound 112] was 4; that for `O=C(c1ccncc1)N(Cc1ccccc1)Cc1ccccc1` [Compound 61] was 4.
The compound `CCOc1cc(S(=O)(=O)Nc2cccnc2)ccc1Cl` [Compound 72] displayed an HTS binding score of 4.
Compound `O=C1C2(c3ccccc3)CN3CC1(c1ccccc1)CN(C2)C3c1cccnc1` (stereo not shown) [Compound 130] displayed an HTS binding score of 4.
The compound `COc1ccc(S(=O)(=O)NC(C)c2ccc(-n3ccnc3)cc2)c2ccccc12` (stereo not shown) [Compound 147] registered an HTS binding score of 4.
For the compound `O=C(CSc1nc(-c2ccc(F)cc2)cc(C(F)(F)F)n1)NCc1ccncc1` [Compound 155], the HTS binding score came to 4.
Compound `CCn1c(C(=O)NCc2cccnc2)cc2oc3ccccc3c21` [Compound 79] registered an HTS binding score of 4.
In turn, `O=C(Nc1ccc(F)cc1)c1ccc2c(c1)C(=O)N(Cc1cccnc1)C2=O` [Compound 125] displayed an HTS binding score of 4.
For `CC1Cc2cc(C(=O)C3=C(O)C(=O)N(Cc4cccnc4)C3c3cccs3)ccc2O1` (stereo not shown) [Compound 164], the HTS binding score was determined as 4.
For the compound `COc1ccc(-c2nc3n(n2)C(c2cccnc2)C2=C(O)CCCC2=N3)cc1` (stereo not shown) [Compound 122], the HTS binding score worked out at 5.
Under `Cc1ccc(S(=O)(=O)N(CC(=O)Nc2cccnc2)c2cccc(C(F)(F)F)c2)cc1` [Compound 172] stands 4; under `Cc1cc(C=C2C(=O)c3ccccc3C2=O)c(C)n1-c1ccncc1` [Compound 85], 4.
For the compound `Cc1nnc(NCc2cccnc2)c2c1nnn2Cc1ccc(F)cc1` [Compound 109], the HTS binding score stood at 5.
`CCCC/N=C(\S)N1CCn2cccc2C1c1cccnc1` (stereo not shown) [Compound 74]: the HTS binding score stood at 4.
`COC(=O)c1sccc1NC(=O)CSCCc1ccncc1` [Compound 96] yielded an HTS binding score of 4.
In the case of `Cc1ccc(S(=O)(=O)N(CC(=O)NCc2cccnc2)c2cccc(Br)c2)cc1` [Compound 180], the HTS binding score was 4.
The compound `CC1=C(C(=O)Nc2cccnc2)C(c2cccc(O)c2)n2nc(SCc3ccccc3)nc2N1` (stereo not shown) [Compound 179] displayed an HTS binding score of 4.
The value for `COc1cccc(C2C(C(=O)Nc3cccnc3)=C(C)Nc3nc(-c4cccs4)nn32)c1` (stereo not shown) [Compound 169] was 4; that for `CCN(Cc1ccncc1)/C(S)=N/CCc1ccccc1` [Compound 59] was 5; that for `CC(NC(=O)C12CC3CC(C1)CC(n1cncn1)(C3)C2)C12CC3CC(CC(C3)C1)C2` (stereo not shown) [Compound 148] was 4.
The value for `Nc1cc(NC(=O)c2cccc(Cl)c2)cc(Oc2cccnc2)c1` [Compound 100] was 4; that for `O=S(=O)(c1ccc(-c2csc(-c3cccnc3)n2)cc1)N1CCCC1` [Compound 121] was 4.
Consider `COc1cc(OC)cc(C(=O)Nc2ccc(Cc3ccncc3)cc2)c1` [Compound 108], for which the HTS binding score was 4.
Under `O=C(/C(=C/c1ccc(F)cc1)n1cncn1)c1ccc(Cl)cc1Cl` [Compound 116] stands 4.
